Test results from the CombiSolv-Exp solvation set (Vermeire and Green 2021).

Assay: solvent given as SMILES

Clc1cc(Cl)c(Cl)c(Cl)c1Cl
Settings | solvation free energy, 298 K [kcal/mol]
in CCCCCCCCC=CCCCCCCCC(=O)OCC(COC(=O)CCCCCCCC=CCCCCCCCC)OC(=O)CCCCCCCC=CCCCCCCCC | -8.79
in CCCCCCCCO | -8.85
in O | -1.69

CCCCCCCCCCCCCCCC
Settings | solvation free energy, 298 K [kcal/mol]
in CCO | -8.9
in ClC(Cl)(Cl)Cl | -11.4
in ClCCCl | -9.66
in O=Cc1ccco1 | -7.93
in OCCOCCO | -5.77

CCOP(=S)(OCC)Oc1ccc([N+](=O)[O-])cc1
Settings | solvation free energy, 298 K [kcal/mol]
in O | -6.74

C=C(C)C1CC=C(C)CCC=C(C)CC1 (stereo not drawn)
Settings | solvation free energy, 298 K [kcal/mol]
in O | -0.37

Nc1ccccc1Cl
Settings | solvation free energy, 298 K [kcal/mol]
in O | -4.91

CCCCCCNCc1ccc(C)cc1
Settings | solvation free energy, 298 K [kcal/mol]
in O | -4.97

C=C(C)C(CC=C(C)C)COC(C)=O (stereo not drawn)
Settings | solvation free energy, 298 K [kcal/mol]
in O | -3.36

O=C(O)c1cccc([N+](=O)[O-])c1
Settings | solvation free energy, 298 K [kcal/mol]
in C1CCOC1 | -12.5
in C1COCCO1 | -12.2
in CC(C)(C)O | -12.4
in CC(C)CCO | -11.8
in CC(C)CO | -12.1
in CC(C)O | -12.4
in CCC(C)O | -12.3
in CCCC(C)O | -12.2
in CCCCCCCCCCO | -11.8
in CCCCCCCCO | -11.9
in CCCCCCCO | -11.9
in CCCCCCO | -12
in CCCCCO | -12.1
in CCCCO | -12.2
in CCCCOC(C)=O | -11.6
in CCCO | -12.3
in CCO | -12.5
in CCOC(C)=O | -11.9
in CCOCC | -12.1
in CO | -12.7
in COC(C)=O | -12.1
in O | -9.45

C=CCl
Settings | solvation free energy, 298 K [kcal/mol]
in O | -0.59

c1ccc2c(c1)Sc1ccccc1S2
Settings | solvation free energy, 298 K [kcal/mol]
in C1COCCO1 | -12.8
in CC(C)CC(C)(C)C | -11.1
in CC(C)CCO | -11.3
in CC(C)CO | -11.1
in CC(C)O | -11
in CC(C)OC(C)C | -11.7
in CCC(C)O | -11.2
in CCCCC(CC)CO | -11.4
in CCCCCC | -11.4
in CCCCCCC | -11.3
in CCCCCCCC | -11.4
in CCCCCCCCCC | -11.3
in CCCCCCCCCCO | -11.6
in CCCCCCCCO | -11.6
in CCCCCCCO | -11.6
in CCCCCCO | -11.5
in CCCCCO | -11.5
in CCCCO | -11.4
in CCCO | -11.3
in CCOCC | -12.1
in CO | -10.9
in COC(C)(C)C | -12.1

Clc1cc(Cl)c(-c2c(Cl)cc(Cl)cc2Cl)c(Cl)c1
Settings | solvation free energy, 298 K [kcal/mol]
in CCCCCCCCO | -12.5
in O | -1.96

FC(F)C(F)(F)F
Settings | solvation free energy, 298 K [kcal/mol]
in CCCCCCCC(=O)OCC(COC(=O)CCCCCCC)OC(=O)CCCCCCC | -0.79
in CCCCCCCCC | -0.39
in CCCCCCCCO | -0.57
in CN(C)C=O | -1.54
in O | 1.45

CCCC(C)(C)C
Settings | solvation free energy, 298 K [kcal/mol]
in C=CCCCCCCCCCCCCCC | -3.7
in CC#N | -2.7
in CN1CCCC1=O | -2.66
in O | 2.88

ClCCOCCCl
Settings | solvation free energy, 298 K [kcal/mol]
in O | -4.23

CCCCCCCC
Settings | solvation free energy, 298 K [kcal/mol]
in Brc1ccccc1 | -5.05
in C1CCCCC1 | -5.54
in C1CCOC1 | -5.32
in C1COCCO1 | -4.49
in C=CCCCC | -5.39
in C=CCCCCCC | -5.28
in C=CCCCCCCCC | -5.23
in CC1COC(=O)O1 | -3.01
in CC#N | -3.63
in CC(=O)N(C)C | -3.96
in CC(=O)O | -3.96
in CC(=O)c1ccccc1 | -4.29
in CC(C)(C)O | -4.62
in CC(C)=O | -4.41
in CC(C)CC(C)(C)C | -5.32
in CC(C)CCCC(C)CCCC(C)CCCCC(C)CCCC(C)CCCC(C)C | -4.83
in CC(C)CCO | -4.61
in CC(C)O | -4.4
in CC(C)OC(C)C | -5.29
in CC(Cl)Cl | -4.66
in CC(O)CO | -2.84
in CCBr | -5.39
in CCC(C)(C)OC | -5.28
in CCC(C)=O | -4.69
in CCCC#N | -4.33
in CCCC(=O)OCC | -4.94
in CCCC(C)=O | -4.81
in CCCCC | -5.43
in CCCCC(CC)COC(=O)CCCCC(=O)OCC(CC)CCCC | -4.69
in CCCCC(CC)COC(=O)c1ccccc1C(=O)OCC(CC)CCCC | -4.43
in CCCCCC | -5.42
in CCCCCC(C)=O | -4.83
in CCCCCCC | -5.37
in CCCCCCCCC | -5.23
in CCCCCCCCC=CCCCCCCCC(=O)OCC(COC(=O)CCCCCCCC=CCCCCCCCC)OC(=O)CCCCCCCC=CCCCCCCCC | -4.75
in CCCCCCCCCC | -5.2
in CCCCCCCCCCCC | -5.11
in CCCCCCCCCCCCCCCC | -5.01
in CCCCCCCCCCCCO | -4.65
in CCCCCCCCCCO | -4.53
in CCCCCCCCO | -4.62
in CCCCCCOC(C)=O | -4.92
in CCCCCO | -4.62
in CCCCO | -4.49
in CCCCOC(=O)c1ccccc1C(=O)OCCCC | -4.5
in CCCCOC(C)=O | -4.85
in CCCCOCCCC | -5.25
in CCCO | -4.41
in CCN1CCCC1=O | -4.09
in CCN(CC)C(C)=O | -4.35
in CCN(CC)CC | -5.5
in CCNC(C)=O | -4.09
in CCNC=O | -3.79
in CCO | -4.3
in CCOC(=O)c1ccccc1C(=O)OCC | -3.95
in CCOC(C)=O | -4.71
in CCOCC | -5.41
in CCOCCOCCOCC | -4.65
in CCOc1ccccc1 | -4.77
in CN1CCCC1=O | -3.77
in CN1CCCCC1=O | -4.02
in CN(C)C=O | -3.75
in CN(C)P(=O)(N(C)C)N(C)C | -4.26
in CNC=O | -3.34
in CO | -3.86
in COC(C)=O | -4.49
in COCCO | -3.76
in COCCOCCOCCOCCOC | -4.01
in COc1ccccc1 | -4.7
in CS(C)=O | -2.79
in Cc1ccc(C)cc1 | -5.28
in Cc1cccc(C)n1 | -4.92
in Cc1cccc(O)c1 | -4.08
in Cc1ccccc1 | -5.29
in Cc1ccccn1 | -4.78
in ClC(Cl)(Cl)Cl | -5.45
in ClC(Cl)Cl | -5.32
in ClCCCl | -4.71
in ClCCl | -5.08
in Clc1ccccc1 | -5.21
in FC(F)(F)C(F)(F)C(F)(F)C(F)(F)C(F)(F)C(F)(F)C(F)(F)C(F)(F)F | -3.45
in FC(F)(F)C(F)(F)C(F)(F)C(F)(F)C(F)(F)C(F)(F)F | -3.52
in Fc1c(F)c(F)c(F)c(F)c1F | -4.83
in Fc1ccccc1 | -5.11
in ICI | -3.3
in Ic1ccccc1 | -4.74
in N#CCCCCC#N | -2.96
in NC=O | -1.27
in NCCO | -1.74
in Nc1ccccc1 | -3.52
in O=C1CCCCC1 | -4.63
in O=C1CCCO1 | -3.22
in O=CN1CCOCC1 | -3.04
in OCCCCCO | -3.06
in OCCCCO | -2.87
in OCCCO | -2.59
in OCCOCCO | -2.35
in OCCOCCOCCOCCO | -2.71
in OCc1ccccc1 | -3.81
in S=C=S | -5.53
in c1ccc2ncccc2c1 | -4.22
in c1ccc(COCc2ccccc2)cc1 | -4.28
in c1ccccc1 | -5.25
in c1ccncc1 | -4.49

Br
Settings | solvation free energy, 298 K [kcal/mol]
in CCCC | -1.23
in CCCCCC | -1.19
in CCCCCCCC | -1.11
in CCCCCCCCCC | -1.09

CCCCCCl
Settings | solvation free energy, 298 K [kcal/mol]
in C1CCOC1 | -5.67
in C1CCOCC1 | -5.23
in C1COCCO1 | -4.94
in C=CCCCCCCCCCCCCCC | -4.46
in CC(C)=O | -4.86
in CCCCCC | -4.76
in CCCCCCCCC=CCCCCCCCC(=O)OCC(COC(=O)CCCCCCCC=CCCCCCCCC)OC(=O)CCCCCCCC=CCCCCCCCC | -4.62
in CCCCCCCCCCCCCCCC | -4.39
in CCCCOCCCC | -4.79
in O | -0.06
